Patent US20230391845A1, “GLP-1, GIP AND GLUCAGON RECEPTOR TRIPLE AGONISTS” (priority 2020, published 2023)
*1 amine or outer side, *2 acyl side, *3 side chain or, on linkers, in order; H or OH if unused. Where a SMILES comes first, the peptide text is derived from it. Side-chain parts run from the residue outwards. [ ]: non-standard residue; d: D form. The star is where a group is joined. C20 diacid = O=C(O)CCCCCCCCCCCCCCCCCCC(=O)*; C18 diacid = O=C(O)CCCCCCCCCCCCCCCCC(=O)*; γGlu = O=C(O)[C@H](CCC(=O)[*:2])N[*:1]; εLys = N[C@@H](CCCCN[*:1])C(=O)[*:2]; AEEA = NCCOCCOCC(=O)O; Aib = CC(C)(N)C(=O)O

What was measured:
[1] = Pharmacokinetic study in minipigs, i.v. administration; set-up: species or system Göttingen minipigs; conditions: female, Göttingen, minipig, in vivo, iv; minipigs, i.v. administration, harmonic mean; read-out: Terminal half-life t1/2 (converted)
Procedure, shortened: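 Female Göttingen minipigs (7-14 months, 16-35 kg), fasted ~18 h pre-dose to 4 h post-dose, received i.v. injections of usually 1.5-2 nmol/kg via central venous catheter. Plasma sampled up to 14 days, assayed by ELISA or LCMS; terminal half-life (harmonic mean) from non-compartmental analysis.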

[2] = Maximal efficacy study in DIO mice, daily s.c. dose titration for up to 60 days (body weight, food intake); assay type: in vivo, C57BL/6J male mice
Procedure: The purpose of this example is to assess the in vivo effect of selected triple agonists on pharmacodynamic parameters in diet-induced obese (DIO) mice. The animals were treated once daily via subcutaneous injection with a liquid formulation of the triple agonist to be tested to assess effects on body weight, foot intake, and glucose tolerance.
C57BL/6J male mice were purchased from Jackson Laboratories at approximately 8 weeks of age. Mice were group housed and fed a high-fat, high-sugar diet from Research Diets (D12331). Mice were maintained on this diet for 12 weeks prior to initializing the pharmacology studies. Mice exceeding a measured body weight of 50 grams were considered diet-induced obese (DIO) and included in pharmacology studies. Mice were exposed to a controlled 12 h:12 h light:dark cycle at ambient room temperature (22° C.) with ab libitum access to food and water. Studies were approved by and performed according to the guidelines of the Institutional Animal Care and Use Committee of the University of Cincinnati.
All compounds in the study were formulated in the following buffer: 50 mM phosphate; 70 mM sodium chloride; 0.05% Tween-80, pH 7.4. Dosing solutions were formulated in glass vials and stored at 2-8° C. Dosing solutions were brought to room temperature before dosing and returned to 2-8° C. after dosing.
DIO mice were distributed into groups (n=8 per group) such that statistical variations in the mean and standard deviations of fat mass and body weight were minimized between groups. The animals were grouped to receive treatment as follows: Vehicle or GLP-1/GIP/Gcg receptor triple agonists as described herein, where vehicle is 50 mM phosphate, 70 mM sodium chloride; 0.05% (v/v) Tween-80, pH 7.4. The test compounds were dissolved in the vehicle, to stock concentrations of […], then diluted 50- to 200-fold in the vehicle to achieve the desired dosing solution concentrations. Animals were dosed subcutaneously once daily in the morning for each day of treatment with dosing solution at a volume of 2-5 μL per gram of body weight as necessary to achieve the desired dose (e.g. 0.3 nmol/kg, 1.0 nmol/kg, or 3.0 nmol/kg).
Body weight (BW) and food intake were measured immediately prior to dosing each day. The percent change in body was calculated individually for each mouse based on initial body weight prior to the first injection.
In one study, DIO mice received a daily subcutaneous dose for up to 60 days of one of the following: vehicle, Compound No. 21, Compound No. 30, or Compound No. 33. The dose of each compound was up-titrated to maximal efficacy based on the titration schedule included in Table 4. Mice that achieved body weight normalization, defined as a body weight of 22.5 g or less, were voluntarily removed from the study. All triple agonist compounds tested resulted is substantially greater reductions of body weight and food intake than vehicle. […] This may be explained by the similar GLP-1R and GIPR in vitro potency but reduced in vitro GcgR potency of Compound No. 21 compared to Compound No. 30 and Compound No. 33 when investigated with the protocol described in Example 2 except using the mouse-specific receptors.

[3] = molecular target: T1, human Gcg receptor (Homo sapiens, UniProt P47871); assay: In vitro functional potency (CRE luciferase; whole cells), human GcgR; assay type: cell-based; conditions: BHK CRE luc2P hGcgR whole cells; for EC50: Table 2, read-out: hGcgR CRE Luc EC50
T1 construct: expressed in transfected cells; host or cells: BHK cells (parent line BHKTS13) containing CRE luciferase
T1 sequence (P47871 26-477): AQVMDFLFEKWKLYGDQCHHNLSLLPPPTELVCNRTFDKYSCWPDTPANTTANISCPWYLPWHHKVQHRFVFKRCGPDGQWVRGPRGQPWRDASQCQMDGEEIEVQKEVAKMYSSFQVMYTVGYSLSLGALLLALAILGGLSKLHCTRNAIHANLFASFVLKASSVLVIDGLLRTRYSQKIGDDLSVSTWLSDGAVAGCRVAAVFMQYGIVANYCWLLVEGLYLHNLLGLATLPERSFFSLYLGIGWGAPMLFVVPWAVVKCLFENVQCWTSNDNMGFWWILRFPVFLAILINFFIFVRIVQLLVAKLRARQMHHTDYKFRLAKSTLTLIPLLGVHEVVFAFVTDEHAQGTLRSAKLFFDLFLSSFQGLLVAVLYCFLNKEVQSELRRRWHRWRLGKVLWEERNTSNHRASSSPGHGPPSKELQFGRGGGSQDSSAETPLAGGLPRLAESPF
Procedure: (§1) The purpose of this example is to test the functional activity, or potency, of the compounds in vitro at the human and mouse GLP-1, GIP, and Gcg receptors. The in vitro functional potency is the measure of target receptor activation in a whole cell assay.
(§2) In vitro functional potency was determined by measuring the response of the target receptor in a reporter gene assay in individual cell lines. The assay was performed in stably transfected BHK cell lines that expresses one of the following G-protein coupled receptors: human GLP-1 receptor, human GIP receptor, human Gcg receptor, mouse GLP-1 receptor, mouse GIP receptor, or mouse Gcg receptor; and where each cell line contains the DNA for the cAMP response element (CRE) coupled to a promoter and the gene for firefly luciferase (CRE luciferase). When the respective receptor is activated, it results in the production of cAMP, which in turn results in expression of the luciferase protein. When assay incubation is completed, luciferase substrate (luciferin) is added resulting in the enzymatic conversion of luciferin to oxyluciferin and producing bioluminescence. The luminescence is measured as the readout for the assay.
(§3) The cells lines used in these assays were BHK cells with BHKTS13 as a parent cell line. The cell lines were derived from a clone containing the CRE luciferase element and were established by further transfection with the respective receptor to obtain the relevant cell line.
(§4) The cells were cultured at 37° C. with 5% CO2 in Cell Culture Medium. They were aliquoted and stored in liquid nitrogen. The cells were kept in continuous culture and were seeded out the day before each assay.
(§5) GLP-1R and GcgR Cell Culture Medium consisted of DMEM medium with 10% FBS, 500 µg/mL G418, and 300 µg/mL hygromycin. GIPR Cell Culture Medium consisted of DMEM medium with 10% FBS, 400 µg/mL G418, and 300 µg/mL hygromycin. Assay Buffer consisted of DMEM w/o phenol red, 10 mM Hepes, 1× Glutamax, 1% ovalbumin, and 0.1% Pluronic F-68.
(§6) • 1) Cells were plated at 5000 cells/well and incubated overnight in the assay plate. • 2) Cells were washed once in DPBS. • 3) Stocks of the test compounds and reference compounds in concentrations ranging from 100-300 pM were diluted 1:150 in Assay Buffer.
(§7) The data from the microtiter plate reader was first regressed in an Excel in order to calculate the x-axis, log scale concentrations based on the individual test compound's stock concentration and the dilutions of the assay. […] The software performs a non-linear regression (log(agonist) vs response). A minimum of two replicates was measured for each sample. The reported values are averages of the replicates.

[4] = molecular target: T2, human GLP-1 receptor (Homo sapiens, UniProt P43220); assay: In vitro functional potency (CRE luciferase; whole cells), human GLP-1R; assay type: cell-based; conditions: BHK CRE luc2P hGLP-1R whole cells
T2 construct: expressed in transfected cells; host or cells: BHK cells (parent line BHKTS13) containing CRE luciferase
T2 sequence (P43220 24-463): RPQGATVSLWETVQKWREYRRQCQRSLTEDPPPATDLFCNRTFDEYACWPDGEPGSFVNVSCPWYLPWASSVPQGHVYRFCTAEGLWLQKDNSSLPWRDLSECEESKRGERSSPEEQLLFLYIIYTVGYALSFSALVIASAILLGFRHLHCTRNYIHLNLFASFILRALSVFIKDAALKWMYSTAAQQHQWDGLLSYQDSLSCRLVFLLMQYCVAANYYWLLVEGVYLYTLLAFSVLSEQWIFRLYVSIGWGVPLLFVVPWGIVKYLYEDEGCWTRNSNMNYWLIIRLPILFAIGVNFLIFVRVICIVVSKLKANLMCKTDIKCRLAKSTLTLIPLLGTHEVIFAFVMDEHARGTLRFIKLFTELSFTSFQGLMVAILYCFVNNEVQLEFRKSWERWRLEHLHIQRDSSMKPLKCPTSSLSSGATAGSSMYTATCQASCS

[5] = molecular target: T3, human GIP receptor (Homo sapiens, UniProt P48546); assay: In vitro functional potency (CRE luciferase; whole cells), human GIPR; assay type: cell-based; conditions: BHK CRE luc2P hGIPR whole cells; Table 1, position of substituent varied
T3 construct: expressed in transfected cells; host or cells: BHK cells (parent line BHKTS13) containing CRE luciferase
T3 sequence (P48546 22-466): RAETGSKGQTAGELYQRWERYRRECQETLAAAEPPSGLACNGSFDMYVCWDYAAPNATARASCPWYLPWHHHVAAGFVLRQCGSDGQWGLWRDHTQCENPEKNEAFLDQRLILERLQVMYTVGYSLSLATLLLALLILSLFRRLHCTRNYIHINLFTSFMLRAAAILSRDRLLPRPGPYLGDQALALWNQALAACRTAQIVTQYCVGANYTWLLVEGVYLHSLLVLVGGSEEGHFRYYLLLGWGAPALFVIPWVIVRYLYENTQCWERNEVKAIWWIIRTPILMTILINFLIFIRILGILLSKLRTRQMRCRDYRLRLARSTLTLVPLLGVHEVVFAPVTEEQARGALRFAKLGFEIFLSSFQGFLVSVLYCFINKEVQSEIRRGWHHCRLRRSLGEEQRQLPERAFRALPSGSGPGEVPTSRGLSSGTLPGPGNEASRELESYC
Procedure: as §1, §2, §3, §4, §5, §6, §7

[6] = s.c. once daily, dose titration of Table 4, last day of treatment, mean ± SEM
[7] = Table 1, position of substituent varied

CC[C@H](C)[C@H](NC(=O)[C@H](CO)NC(=O)[C@H](Cc1ccc(O)cc1)NC(=O)[C@H](CC(=O)O)NC(=O)[C@H](CO)NC(=O)[C@@H](NC(=O)[C@H](Cc1ccccc1)NC(=O)[C@@H](NC(=O)CNC(=O)[C@H](Cc1c[nH]cn1)NC(=O)C(C)(C)NC(=O)[C@@H](N)Cc1c[nH]cn1)[C@@H](C)O)[C@@H](C)O)C(=O)N[C@@H](Cc1ccc(O)cc1)C(=O)N[C@@H](CC(C)C)C(=O)N[C@@H](CCC(=O)O)C(=O)N[C@@H](CCCCNC(=O)[C@@H](N)CCCCNC(=O)[C@@H](N)CCCCNC(=O)CC[C@H](NC(=O)CCCCCCCCCCCCCCCCCCC(=O)O)C(=O)O)C(=O)N[C@@H](CCCCN)C(=O)N[C@@H](C)C(=O)N[C@@H](C)C(=O)NC(C)(C)C(=O)N[C@@H](CCC(=O)O)C(=O)N[C@@H](Cc1ccccc1)C(=O)N[C@H](C(=O)N[C@@H](CCC(N)=O)C(=O)N[C@@H](Cc1c[nH]c2ccccc12)C(=O)N[C@@H](CC(C)C)C(=O)N[C@@H](CC(C)C)C(=O)N[C@@H](CCC(=O)O)C(=O)NCC(=O)NCC(=O)N1CCC[C@H]1C(=O)N[C@@H](CO)C(=O)N[C@@H](CO)C(=O)NCC(=O)N[C@@H](C)C(=O)N1CCC[C@H]1C(=O)N1CCC[C@H]1C(=O)N1CCC[C@H]1C(=O)N[C@@H](CO)C(N)=O)C(C)C [Compound No. 33] (H-H[Aib]HGTFTSDYSIYLEK([εLys-εLys-γGlu-C20 diacid])KAA[Aib]EFVQWLLEGGPSSGAPPPS-NH2)
half-life [1]: 47 h
Absolute BW (grams) Day 0 ([2]; Day 0 (baseline), mean ± SEM): 54.9 ± 2.6 grams
Absolute BW (grams) Last day of treatment [2, 6]: 24.8 ± 1.4 grams
Change in BW (%) Last day of treatment [2, 6]: −54.5 ± 3.5%
Average food intake per mouse (grams/day) ([2]; s.c. once daily, dose titration of Table 4, mean ± SEM, n = 1-2): 1.38 ± 0.25 grams/day

CC[C@H](C)[C@H](NC(=O)[C@H](CO)NC(=O)[C@H](Cc1ccc(O)cc1)NC(=O)[C@H](CC(=O)O)NC(=O)[C@H](CO)NC(=O)[C@@H](NC(=O)[C@H](Cc1ccccc1)NC(=O)[C@@H](NC(=O)CNC(=O)[C@H](Cc1c[nH]cn1)NC(=O)C(C)(C)NC(=O)[C@@H](N)Cc1c[nH]cn1)[C@@H](C)O)[C@@H](C)O)C(=O)N[C@@H](Cc1ccc(O)cc1)C(=O)N[C@@H](CC(C)C)C(=O)N[C@@H](CCC(=O)O)C(=O)N[C@@H](CCCCNC(=O)[C@@H](N)CCCCNC(=O)[C@@H](N)CCCCNC(=O)CC[C@H](NC(=O)CCCCCCCCCCCCCCCCC(=O)O)C(=O)O)C(=O)N[C@@H](CCCCN)C(=O)N[C@@H](Cc1ccc(O)cc1)C(=O)N[C@@H](C)C(=O)NC(C)(C)C(=O)N[C@@H](CCC(=O)O)C(=O)N[C@@H](Cc1ccccc1)C(=O)N[C@H](C(=O)N[C@@H](CCC(N)=O)C(=O)N[C@@H](Cc1c[nH]c2ccccc12)C(=O)N[C@@H](CC(C)C)C(=O)N[C@@H](CC(C)C)C(=O)N[C@@H](CCC(=O)O)C(=O)NCC(=O)NCC(=O)N1CCC[C@H]1C(=O)N[C@@H](CO)C(=O)N[C@@H](CO)C(=O)NCC(=O)N[C@@H](C)C(=O)N1CCC[C@H]1C(=O)N1CCC[C@H]1C(=O)N1CCC[C@H]1C(=O)N[C@@H](CO)C(N)=O)C(C)C [Compound No. 38] (H-H[Aib]HGTFTSDYSIYLEK([εLys-εLys-γGlu-C18 diacid])KYA[Aib]EFVQWLLEGGPSSGAPPPS-NH2)
EC50 [3]: 6.4 pM
EC50 ([4]; Table 2, read-out: hGLP-1R CRE Luc EC50): 2.8 pM

CC[C@H](C)[C@H](NC(=O)[C@H](CO)NC(=O)[C@H](Cc1ccc(O)cc1)NC(=O)[C@H](CC(=O)O)NC(=O)[C@H](CO)NC(=O)[C@@H](NC(=O)[C@H](Cc1ccccc1)NC(=O)[C@@H](NC(=O)CNC(=O)[C@H](Cc1c[nH]cn1)NC(=O)C(C)(C)NC(=O)[C@@H](N)Cc1c[nH]cn1)[C@@H](C)O)[C@@H](C)O)C(=O)N[C@@H](CC(C)C)C(=O)N[C@@H](CC(C)C)C(=O)N[C@@H](CCC(=O)O)C(=O)N[C@@H](CCCCNC(=O)[C@@H](N)CCCCNC(=O)[C@@H](N)CCCCNC(=O)CC[C@H](NC(=O)CCCCCCCCCCCCCCCCC(=O)O)C(=O)O)C(=O)N[C@@H](CCC(N)=O)C(=O)N[C@@H](C)C(=O)N[C@@H](C)C(=O)N[C@@H](Cc1c[nH]cn1)C(=O)N[C@@H](CCC(=O)O)C(=O)N[C@@H](Cc1ccccc1)C(=O)N[C@H](C(=O)N[C@@H](CCC(N)=O)C(=O)N[C@@H](Cc1c[nH]c2ccccc12)C(=O)N[C@@H](CC(C)C)C(=O)N[C@@H](CC(C)C)C(=O)N[C@@H](CCC(=O)O)C(=O)NCC(=O)NCC(=O)N1CCC[C@H]1C(=O)N[C@@H](CO)C(=O)N[C@@H](CO)C(=O)NCC(=O)N[C@@H](C)C(=O)N1CCC[C@H]1C(=O)N1CCC[C@H]1C(=O)N1CCC[C@H]1C(=O)N[C@@H](CO)C(=O)O)C(C)C [Compound No. 56] (H-H[Aib]HGTFTSDYSILLEK([εLys-εLys-γGlu-C18 diacid])QAAHEFVQWLLEGGPSSGAPPPS-OH)
EC50 [3]: 6.4 pM

CC[C@H](C)[C@H](NC(=O)[C@H](CO)NC(=O)[C@H](Cc1ccc(O)cc1)NC(=O)[C@H](CC(=O)O)NC(=O)[C@H](CO)NC(=O)[C@@H](NC(=O)[C@H](Cc1ccccc1)NC(=O)[C@@H](NC(=O)CNC(=O)[C@H](CCC(N)=O)NC(=O)C(C)(C)NC(=O)[C@@H](N)Cc1ccc(O)cc1)[C@@H](C)O)[C@@H](C)O)C(=O)N[C@@H](Cc1ccc(O)cc1)C(=O)N[C@@H](CC(C)C)C(=O)N[C@@H](CC(=O)O)C(=O)N[C@@H](CCCCN)C(=O)N[C@@H](CCC(N)=O)C(=O)N[C@@H](C)C(=O)N[C@@H](C)C(=O)NC(C)(C)C(=O)N[C@@H](CCC(=O)O)C(=O)N[C@@H](Cc1ccccc1)C(=O)N[C@H](C(=O)N[C@@H](CC(N)=O)C(=O)N[C@@H](Cc1c[nH]c2ccccc12)C(=O)N[C@@H](CC(C)C)C(=O)N[C@@H](CC(C)C)C(=O)N[C@@H](C)C(=O)NCC(=O)NCC(=O)N1CCC[C@H]1C(=O)N[C@@H](CO)C(=O)N[C@@H](CO)C(=O)NCC(=O)N[C@@H](C)C(=O)N1CCC[C@H]1C(=O)N1CCC[C@H]1C(=O)N1CCC[C@H]1C(=O)N[C@@H](CO)C(=O)N[C@@H](CCCCNC(=O)COCCOCCNC(=O)COCCOCCNC(=O)CC[C@H](NC(=O)CCCCCCCCCCCCCCCCC(=O)O)C(=O)O)C(N)=O)C(C)C [Compound No. 59, reference compound] (H-Y[Aib]QGTFTSDYSIYLDKQAA[Aib]EFVNWLLAGGPSSGAPPPSK([AEEA-AEEA-γGlu-C18 diacid])-NH2; N-terminus assumed)
hGcgR CRE Luc EC50 (pM) [3, 7]: lower potency
hGLP-1R CRE Luc EC50 (pM) [4, 7]: lower potency
hGIPR CRE Luc EC50 (pM) [5]: lower potency
